Laboratory results from patent publication US20220062240A1, “METHODS OF TREATING CANCER USING A CLK INHIBITOR” (BioSplice Therapeutics, Inc., priority 2018, published 2022).
Like-named read-outs stand apart in the source and are kept apart here.

What was measured:
[1] = tested on: Wnt-responsive Sp5-Luc reporter in SW480 colon carcinoma cells; test: Wnt activity screening assay (Sp5-Luc reporter); type: cell-based; settings: Homo sapiens
Text: The screening assay for Wnt activity is described as follows. Reporter cell lines can be generated by stably transducing cancer cell lines (e.g., colon cancer) or primary cells (e.g., IEC-6 intestinal cells) with a lentiviral construct that includes a Wnt-responsive promoter driving expression of the firefly luciferase gene.
SW480 colon carcinoma cells were transduced with a lentiviral vector expressing luciferase with a human Sp5 promoter consisting of a sequence of eight TCF/LEF binding sites. […] These stably transduced SW480 cells were expanded in cell culture and used for all further screening activities. […] For Sp5-Luc reporter gene assays, the cells were plated at 4,000 cells/well in 384-well plates with a DMEM medium containing 1% fetal bovine serum, and 1% Penicillin-Streptomycin and incubated for 36 to 48 hours at 37° C. and 5% CO2. Following incubation, 15 μL of BriteLite Plus luminescence reagent (Perkin Elmer) was added to each well of the 384-well assay plates. The plates were placed on an orbital shaker for 2 min and then luminescence was quantified using the Envision (Perkin Elmer) plate reader.

CLK2 = biological target: T1, CLK2 (Homo sapiens, UniProt P49760); test: CLK2 kinase activity assay (Z-lyte, Ser/Thr 6 peptide); type: biochemical; settings: recombinant CLK2 kinase, ATP 60 μM; read-out: EC50
T1 construct: purchased Thermo Fisher (Life Technologies), Z'-LYTE Kinase Assay Kits
Protocol: All reactions were performed in duplicate.

[2] = tested on: SW480 colorectal cancer cells; test: Gene expression qRT-PCR in SW480 cells; type: cell-based; settings: Homo sapiens
Protocol: SW480 colorectal cancer cells were plated at 1×10^4 cells per well into 96-well plates (Olympus). Compounds were diluted in cell culture media and added to the cells at a final concentration of 3 μM. Cells were treated with vehicle (DMSO) and compounds for 24 hours. N=3 biological replicates per conditions.
Following treatment, cells were lysed, and cDNA was generated using the Fastlane Cell cDNA Kit (Qiagen).
384-well PCR plates with pre-spotted primers for CLK1, CLK2, CLK3, DVL2, LRP5, SRSF1, SRSF3, SRSF4, SRSF5, TCF7, TCF7L2 were ordered from Bio-Rad. The generated cDNA, along with a SYBR Green qRT-PCR master mix (SsoAdvanced™ Universal SYBR® Green Supermix, Bio-Rad) was added to the PCR plates.
qRT-PCR was performed on the plates using a CFX384 Touch™ Real-Time PCR Detection System (Bio-Rad) with the manufacturer's recommended thermal cycling conditions.
Data from the qRT-PCR assay was normalized to the GAPDH and HPRT1 housekeeping genes and set gene expression fold change was set relative to vehicle-treated cells using the ΔΔCt analysis method.

CLK3 = CLK3 (Homo sapiens, UniProt P49761); test: CLK3 kinase activity assay (Z-lyte, Ser/Thr 18 peptide)
all 50 cell lines = test: CellTiter-Glo Viability Assay, average across all cell lines; type: cell-based; settings: Homo sapiens; across all 50 cell lines; read-out: average EC50 for inhibition of cancer cell proliferation
Protocol: Fifty-one human cancer cell lines (breast cancer (8 cell lines), colorectal cancer (6 cell lines), haematopoietic & lymphoid tumors (13 cell lines), liver cancer (3 cell lines), lung cancer (4 cell lines), ovarian cancer (4 cell lines), pancreatic cancer (8 cell lines), and prostate cancer (5 cell lines)) were tested to determine the effects of representative compounds of Formulas (I)-(XII) on cellular proliferation, as evaluated using the CellTiter-Glo® Viability Assay.
For the Cell Viability Assays, cells were plated at 300-3,000 cells/well in 384-well plates in their respective media containing 1% Penicillin-Streptomycin and incubated for four days at 37° C. and 5% CO2. Twenty-eight replicates of DMSO-treated cells served as controls and cells treated with compound were performed in duplicate.
After incubation, 10 μL of CellTiter-Glo® (Promega) was added to each well allowed to incubate for approximately 12 minutes. This reagent results in cell lysis and generation of a luminescent signal proportional to the amount of ATP present. The amount of ATP is directly proportional to the number of metabolically active, viable cells present in culture. The CellTiter-Glo® Assay generates a luminescent signal, produced by the luciferase reaction (Promega.com).
After incubation, the luminescence signal was read using an EnVision™ Multilabel Plate Reader (Perkin Elmer). Dose-response curves were generated and EC50 concentration values were calculated using Dotmatics' Studies Software (Bishops Stortford, UK).

[3] = SW480 Sp5-Luc reporter, 36 to 48 hours, read-out: EC50
[4] = SW480, 3 μM, 24 hours, relative to DMSO, read-out: gene expression fold change CLK1
[5] = SW480, 3 μM, 24 hours, relative to DMSO, read-out: gene expression fold change CLK2
[6] = SW480, 3 μM, 24 hours, relative to DMSO, read-out: gene expression fold change CLK3
[7] = SW480, 3 μM, 24 hours, relative to DMSO, read-out: gene expression fold change DVL2
[8] = SW480, 3 μM, 24 hours, relative to DMSO, read-out: gene expression fold change LRP5
[9] = SW480, 3 μM, 24 hours, relative to DMSO, read-out: gene expression fold change SRSF1
[10] = SW480, 3 μM, 24 hours, relative to DMSO, read-out: gene expression fold change SRSF3
[11] = SW480, 3 μM, 24 hours, relative to DMSO, read-out: gene expression fold change SRSF4
[12] = SW480, 3 μM, 24 hours, relative to DMSO, read-out: gene expression fold change SRSF5
[13] = SW480, 3 μM, 24 hours, relative to DMSO, read-out: gene expression fold change TCF7
[14] = SW480, 3 μM, 24 hours, relative to DMSO, read-out: gene expression fold change TCF7L2

T1 sequence (P49760 whole entry): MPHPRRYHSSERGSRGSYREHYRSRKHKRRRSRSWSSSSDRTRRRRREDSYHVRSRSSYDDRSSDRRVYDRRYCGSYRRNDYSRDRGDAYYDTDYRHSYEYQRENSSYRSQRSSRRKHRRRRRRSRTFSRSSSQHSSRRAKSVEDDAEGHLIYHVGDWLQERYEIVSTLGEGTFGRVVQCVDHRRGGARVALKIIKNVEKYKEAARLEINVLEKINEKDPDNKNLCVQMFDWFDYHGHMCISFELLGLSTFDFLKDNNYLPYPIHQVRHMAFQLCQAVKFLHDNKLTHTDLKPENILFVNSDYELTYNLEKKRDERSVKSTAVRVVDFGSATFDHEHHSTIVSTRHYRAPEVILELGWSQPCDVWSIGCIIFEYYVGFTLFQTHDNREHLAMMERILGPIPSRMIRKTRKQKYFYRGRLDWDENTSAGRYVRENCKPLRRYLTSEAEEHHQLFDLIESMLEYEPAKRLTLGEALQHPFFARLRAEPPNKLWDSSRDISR
CLK3, sequence (P49761 whole entry): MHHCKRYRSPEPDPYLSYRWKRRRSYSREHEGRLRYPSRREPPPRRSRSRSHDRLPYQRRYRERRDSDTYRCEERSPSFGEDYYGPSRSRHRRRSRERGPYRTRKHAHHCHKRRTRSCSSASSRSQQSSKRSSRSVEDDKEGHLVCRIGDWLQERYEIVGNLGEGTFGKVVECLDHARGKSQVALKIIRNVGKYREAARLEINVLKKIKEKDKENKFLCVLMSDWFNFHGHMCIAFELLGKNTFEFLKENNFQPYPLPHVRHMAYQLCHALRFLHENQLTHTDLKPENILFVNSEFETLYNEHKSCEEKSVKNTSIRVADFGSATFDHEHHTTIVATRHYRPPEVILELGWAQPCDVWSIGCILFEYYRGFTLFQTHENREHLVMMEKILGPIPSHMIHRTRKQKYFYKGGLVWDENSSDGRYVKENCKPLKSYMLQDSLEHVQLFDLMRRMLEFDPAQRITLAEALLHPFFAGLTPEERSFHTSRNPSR

Compound	EC50 [1, 3]	EC50 (CLK2)	fold induction at 3 µM [2, 4]	fold induction at 3 µM [2, 5]	fold induction at 3 µM [2, 6]	fold induction at 3 µM [2, 7]	fold induction at 3 µM [2, 8]	fold induction at 3 µM [2, 9]	fold induction at 3 µM [2, 10]	fold induction at 3 µM [2, 11]	fold induction at 3 µM [2, 12]	fold induction at 3 µM [2, 13]	fold induction at 3 µM [2, 14]	EC50 (CLK3)	also measured
CN1CCC(C(=O)Nc2c[nH]nc2-c2nc3c(-c4cccc(F)c4)cccc3[nH]2)CC1 [Compound 1]	0.039 µM	0.001 µM	0.02	0.02	0.01	0.14	0.18	0.32	0.13	0.03	0.39	0.44	0.24	0.01 µM	–
Cc1n[nH]c2ncc(-c3cncc(OC[C@@H](N)Cc4ccccc4)n3)cc12 [Compound 4]	0.525 µM	0.002 µM	0.43	0.35	0.74	0.11	0.06	0.25	0.05	0.7	0.27	0.21	0.13	1.28 µM	–
Cc1ncc(NC(=O)c2n[nH]c3ccc(-c4cnn(C5CCNCC5)c4)cc23)s1 [Compound 5]	0.257 µM	0.0003 µM	0.15	0.12	0.55	0.37	0.43	1.52	0.46	0.27	0.6	0.3	0.24	0.027 µM	–
CC(C)N1CCC(n2cc(C(=O)Nc3cc4cc(-c5cnn(C)c5)ccc4cn3)cn2)CC1 [Compound 11]	0.013 µM	0.001 µM	0.02	0.04	0.09	0.11	0.09	0.74	0.17	0.15	0.24	0.19	0.17	0.005 µM	–
Nc1cncc(-c2ccc3cnc(NC(=O)c4ccc(OC5CCNCC5)cc4)cc3c2)c1 [Compound 20]	0.169 µM	0.001 µM	0.07	0.08	0.35	0.42	0.37	1.56	0.5	0.33	0.63	0.47	0.6	0.019 µM	–
O=C(Nc1cc2cc(-c3cncc(NC4CCNC[C@@H]4F)n3)ccc2cn1)C1CC1 (some centres unmarked) [Compound 22]	0.014 µM	0.002 µM	0.04	0.04	0.04	0.41	0.21	0.53	0.18	0.04	0.36	0.75	0.68	0.018 µM	–
CCS(=O)(=O)c1cccc(-c2cc(C(=O)NC3CCN(C)CC3)c(C)c3[nH]c4ncc(C)cc4c23)c1 [Compound 24]	–	0.003 µM	–	–	–	–	–	–	–	–	–	–	–	0.07 µM	EC50 ([1]; SW480): 0.32 µM; fold induction at 3 µM ([2]; SW480, 24 h, read-out: gene expression fold change CLK1): 0.35; fold induction at 3 µM ([2]; SW480, 24 h, read-out: gene expression fold change CLK2): 0.19; fold induction at 3 µM ([2]; SW480, 24 h, read-out: gene expression fold change CLK3): 0.19; fold induction at 3 µM ([2]; SW480, 24 h, read-out: gene expression fold change DVL2): 0.39; fold induction at 3 µM ([2]; SW480, 24 h, read-out: gene expression fold change LRP5): 0.34; fold induction at 3 µM ([2]; SW480, 24 h, read-out: gene expression fold change SRSF1): 0.46; fold induction at 3 µM ([2]; SW480, 24 h, read-out: gene expression fold change SRSF3): 0.31; fold induction at 3 µM ([2]; SW480, 24 h, read-out: gene expression fold change SRSF4): 0.37; fold induction at 3 µM ([2]; SW480, 24 h, read-out: gene expression fold change SRSF5): 0.49; fold induction at 3 µM ([2]; SW480, 24 h, read-out: gene expression fold change TCF7): 0.49; fold induction at 3 µM ([2]; SW480, 24 h, read-out: gene expression fold change TCF7L2): 0.33
Cc1nc(Nc2n[nH]c3c2CN(C(=O)N[C@H](CN(C)C)c2ccccc2)C3(C)C)c2sccc2n1 [Compound 25]	0.114 µM	0.01 µM	0.07	0.09	0.08	0.21	0.09	0.2	0.1	0.09	0.19	0.21	0.11	0.144 µM	–
CN(C)Cc1cncc(-c2ccc3[nH]nc(-c4nc5c(-c6cc(F)cc(CNS(C)(=O)=O)c6)ccnc5[nH]4)c3c2F)c1 [Compound 41]	0.773 µM	0.002 µM	–	–	–	–	–	–	–	–	–	–	–	0.018 µM	–
c1cncc(-c2ccc3[nH]nc(-c4nc5ccncc5[nH]4)c3c2)c1 [Compound 43]	0.133 µM	0.004 µM	–	–	–	–	–	–	–	–	–	–	–	0.04 µM	–
NC1CN(c2cncc(-c3cc4c(-c5nc6c(-c7cccc(F)c7)cccc6[nH]5)n[nH]c4cn3)n2)C1 [Compound 44]	0.079 µM	0.018 µM	–	–	–	–	–	–	–	–	–	–	–	0.108 µM	–
CC(C)CC(=O)Nc1cncc(-c2cc3c(-c4nc5c(-c6cc(F)cc(OCCN7CCCC7)c6)cncc5[nH]4)n[nH]c3cn2)c1 [Compound 45]	> 10 µM	–	–	–	–	–	–	–	–	–	–	–	–	–	EC50 (all 50 cell lines): 8.49 µM
CN(C)CCOc1cncc(-c2cc3c(-c4cc5c(-c6cccnc6)ccnc5[nH]4)n[nH]c3cn2)c1 [Compound 49]	> 10 µM	0.0022 µM	–	–	–	–	–	–	–	–	–	–	–	0.0193 µM	EC50 (all 50 cell lines): 9.72 µM
Cc1ncc(-c2cnc3[nH]nc(-c4cc5c(-c6cc(F)cc(NCCN(C)C)c6)ccnc5[nH]4)c3c2)n1C [Compound 52]	–	0.0019 µM	–	–	–	–	–	–	–	–	–	–	–	0.0266 µM	EC50 (all 50 cell lines): 8.46 µM
O=C(Nc1c[nH]nc1-c1nc2c(-c3cccc(F)c3)cncc2[nH]1)C1CCNCC1 [Compound 89]	2.17 µM	0.0022 µM	–	–	–	–	–	–	–	–	–	–	–	0.0305 µM	EC50 (all 50 cell lines): 8.5 µM
